# Data reported in patent publication EP4707284A1, “HETEROCYCLIC COMPOUND AND USE THEREOF” (Otsuka Pharmaceutical Co., Ltd., priority 2023, dated 2024).
# Legend:
# [1] = type: physicochemical; settings: Tris-hydrochloric acid buffer (pH 7.5) 50 mmol/L, magnesium chloride 5 mmol/L, evaluation compound 1 µmol/L, 37°C, 60 minutes, average of duplicate
# In short: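 Conversion of compounds to brexpiprazole measured in buffer at 37°C, in duplicate: compound added after 3 min pre-incubation of reaction solution, and reaction stopped at 0 or 60 min with acetonitrile/isopropanol (4:1) containing internal standards. Quantified against calibration samples at 0.01, 0.1 and 1 µmol/L.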
# [2] = system: HL-60 cells; assay: in vitro; type: cell-based, human; settings: 300 µmol/L, about 24 hours; for cytotoxicity (%) Evaluation compound results: PMA-differentiated HL-60 cells, LDH activity, no-treatment group 0%, cell lysis buffer-treated group 100%
# Description: (§1) An HL-60 cell line (human acute promyelocytic leukemia cells) was successively cultured in RPMI 1640 containing 20% fetal bovine serum (FBS) at 37°C in 95% atmosphere/5% CO2. Before evaluation, the cells were pre-cultured for about 72 hours in the presence of 10 nM phorbol 12-myristate 13-acetate (PMA) to induce macrophage-like differentiation.
# (§2) Evaluation compounds were dissolved in DMSO to obtain 30 mmol/L solutions (or suspensions). Each DMSO solution was diluted 100-fold with RPMI 1640 containing 2% FBS (final concentration of the compound: 300 µmol/L) to obtain a treatment solution. The culture supernatant of the differentiated HL-60 cells was removed, and each treatment solution was added and cultured for about 24 hours, followed by cytotoxicity evaluation.
# (§3) The activity of lactate dehydrogenase (LDH) was measured in the treatment solutions exposed to the cells for about 24 hours by using a commercial kit (Cytotoxicity LDH Assay Kit-WST, Dojindo Laboratories) and a plate reader (Tecan Infinite M1000). The obtained measurement values were used to calculate cytotoxicity (%) as comparison values for each evaluation compound-treated group, with the no-treatment group taken as 0% and the cell lysis buffer-treated group taken as 100%. The test was conducted in triplicate in three wells each, and the average values were used as adopted values.
# [3] = in vitro; type: cell-based, human; settings: human; 300 µmol/L, about 24 hours, PMA-differentiated HL-60 cells, LDH activity; no-treatment group 0%, cell lysis buffer-treated group 100%; read-out: cytotoxicity (%) Evaluation compound results
# Description: as §1, §2, §3
SMILES,Concentration of brexpiprazole formed [1] [µM],Concentration of evaluation compound decreased [1] [µM],cytotoxicity (%) Evaluation compound results [2] [%],"cytotoxicity at 24 h, 300 µM [3] [%]",cytotoxicity compared with control compounds (in words) [2]
COCCN(CCOC)P(=O)([O-])OC[N+]1(CCCCOc2ccc3ccc(=O)[nH]c3c2)CCN(c2cccc3sccc23)CC1 [EX 153],0.00,-0.01,-7,–,–
"O=C(OC[N+]1(CCCCOc2ccc3ccc(=O)[nH]c3c2)CCN(c2cccc3sccc23)CC1)N1CCCCC1.[I-] [REX 4, 4-(benzo[b]thiophen-4-yl)-1-(4-((2-oxo-1,2-dihydroquinolin-7-yl)oxy)butyl)-1-(((piperidine-1-carbonyl)oxy)methyl)piperazin-1-ium iodide, reference compound]",–,–,83,–,stronger cytotoxicity than that of the Reference Example 3 compound
"O=c1ccc2ccc(OCCCC[N+]3(COP(=O)([O-])OCCCO)CCN(c4cccc5sccc45)CC3)cc2[nH]1 [EX 6, (4-(benzo[b]thiophen-4-yl)-1-(4-((2-oxo-1,2-dihydroquinolin-7-yl)oxy)butyl)piperazin-1-ium-1-yl)methyl (3-hydroxypropyl) phosphate]",0.00,-0.11,–,16,–
"O=c1ccc2ccc(OCCCC[N+]3(COP(=O)([O-])OCCO)CCN(c4cccc5sccc45)CC3)cc2[nH]1 [EX 9, (4-(benzo[b]thiophen-4-yl)-1-(4-((2-oxo-1,2-dihydroquinolin-7-yl)oxy)butyl)piperazin-1-ium-1-yl)methyl (2-hydroxyethyl)phosphate]",–,–,–,-2,–
"CCOP(=O)([O-])OC[N+]1(CCCCOc2ccc3ccc(=O)[nH]c3c2)CCN(c2cccc3sccc23)CC1 [EX 3, (4-(benzo[b]thiophen-4-yl)-1-(4-((2-oxo-1,2-dihydroquinolin-7-yl)oxy)butyl)piperazin-1-ium-1-yl)methyl ethyl phosphate]",0.00,0.01,–,-7,–
"CC(=O)OCCCOP(=O)([O-])OC[N+]1(CCCCOc2ccc3ccc(=O)[nH]c3c2)CCN(c2cccc3sccc23)CC1 [EX 15, 3-acetoxypropyl ((4-(benzo[b]thiophen-4-yl)-1-(4-((2-oxo-1,2-dihydroquinolin-7-yl)oxy)butyl)piperazin-1-ium-1-yl)methyl)phosphate]",0.00,0.00,–,3,–
"CC(C)(C)OP(=O)([O-])OC[N+]1(CCCCOc2ccc3ccc(=O)[nH]c3c2)CCN(c2cccc3sccc23)CC1 [EX 4, (4-(benzo[b]thiophen-4-yl)-1-(4-((2-oxo-1,2-dihydroquinolin-7-yl)oxy)butyl)piperazin-1-ium-1-yl)methyl tert-butyl phosphate]",0.00,0.02,–,-5,–
CC(C)(C)[Si](C)(C)OCCCCOP(=O)([O-])OC[N+]1(CCCCOc2ccc3ccc(=O)[nH]c3c2)CCN(c2cccc3sccc23)CC1 [EX 60],0.00,0.09,16,–,–
"CC(C)OP(=O)([O-])OC[N+]1(CCCCOc2ccc3ccc(=O)[nH]c3c2)CCN(c2cccc3sccc23)CC1 [EX 5, (4-(benzo[b]thiophen-4-yl)-1-(4-((2-oxo-1,2-dihydroquinolin-7-yl)oxy)butyl)piperazin-1-ium-1-yl)methyl isopropyl phosphate]",0.00,0.07,–,-4,–
COCCn1nc(C(=O)OCOP(=O)([O-])OC[N+]2(CCCCOc3ccc4ccc(=O)[nH]c4c3)CCN(c3cccc4sccc34)CC2)c2ccccc21 [EX 82],0.00,0.02,-2,–,–

# Now from value to compound, other results behind:
Concentration of brexpiprazole formed [1] [µM],Concentration of evaluation compound decreased [1] [µM],SMILES,cytotoxicity (%) Evaluation compound results [2] [%],"cytotoxicity at 24 h, 300 µM [3] [%]",cytotoxicity compared with control compounds (in words) [2]
0.00,0.03,"CC(C)OCCOP(=O)([O-])OC[N+]1(CCCCOc2ccc3ccc(=O)[nH]c3c2)CCN(c2cccc3sccc23)CC1 [EX 13, (4-(benzo[b]thiophen-4-yl)-1-(4-((2-oxo-1,2-dihydroquinolin-7-yl)oxy)butyl)piperazin-1-ium-1-yl)methyl (2-isopropoxyethyl)phosphate]",–,-5,–
0.00,-0.01,"O=C(OCOP(=O)([O-])OC[N+]1(CCCCOc2ccc3ccc(=O)[nH]c3c2)CCN(c2cccc3sccc23)CC1)C1CCCCC1 [EX 18, (4-(benzo[b]thiophen-4-yl)-1-(4-((2-oxo-1,2-dihydroquinolin-7-yl)oxy)butyl)piperazin-1-ium-1-yl)methyl (((cyclohexanecarbonyl)oxy)methyl)phosphate]",–,8,–
0.00,-0.07,"O=C(OCOP(=O)([O-])OC[N+]1(CCCCOc2ccc3ccc(=O)[nH]c3c2)CCN(c2cccc3sccc23)CC1)OC1CCCCC1 [EX 19, (4-(benzo[b]thiophen-4-yl)-1-(4-((2-oxo-1,2-dihydroquinolin-7-yl)oxy)butyl)piperazin-1-ium-1-yl)methyl ((((cyclohexyloxy)carbonyl)oxy)methyl)phosphate]",–,16,–
0.00,0.09,CCOC(=O)CCCC(=O)OCOP(=O)([O-])OC[N+]1(CCCCOc2ccc3ccc(=O)[nH]c3c2)CCN(c2cccc3sccc23)CC1 [EX 68],–,-6,–
0.01,0.07,"CCOC(=O)COP(=O)([O-])OC[N+]1(CCCCOc2ccc3ccc(=O)[nH]c3c2)CCN(c2cccc3sccc23)CC1 [EX 8, (4-(benzo[b]thiophen-4-yl)-1-(4-((2-oxo-1,2-dihydroquinolin-7-yl)oxy)butyl)piperazin-1-ium-1-yl)methyl (2-ethoxy-2-oxoethyl)phosphate]",–,15,–
0.00,0.01,"CCCCCC(=O)OCOP(=O)([O-])OC[N+]1(CCCCOc2ccc3ccc(=O)[nH]c3c2)CCN(c2cccc3sccc23)CC1 [EX 16, (4-(benzo[b]thiophen-4-yl)-1-(4-((2-oxo-1,2-dihydroquinolin-7-yl)oxy)butyl)piperazin-1-ium-1-yl)methyl ((hexanoyloxy)methyl)phosphate]",–,17,–
0.00,0.07,"CCCCCCCCCC(=O)OCOP(=O)([O-])OC[N+]1(CCCCOc2ccc3ccc(=O)[nH]c3c2)CCN(c2cccc3sccc23)CC1 [EX 17, (4-(benzo[b]thiophen-4-yl)-1-(4-((2-oxo-1,2-dihydroquinolin-7-yl)oxy)butyl)piperazin-1-ium-1-yl)methyl ((decanoyloxy)methyl)phosphate]",–,8,–
0.00,0.08,"O=c1ccc2ccc(OCCCC[N+]3(COP(=O)([O-])OCCN4CCOCC4)CCN(c4cccc5sccc45)CC3)cc2[nH]1 [EX 14, (4-(benzo[b]thiophen-4-yl)-1-(4-((2-oxo-1,2-dihydroquinolin-7-yl)oxy)butyl)piperazin-1-ium-1-yl)methyl (2-morpholinoethyl)phosphate]",–,-10,–
0.00,-0.06,"COCCOCCOP(=O)([O-])OC[N+]1(CCCCOc2ccc3ccc(=O)[nH]c3c2)CCN(c2cccc3sccc23)CC1 [EX 7, (4-(benzo[b]thiophen-4-yl)-1-(4-((2-oxo-1,2-dihydroquinolin-7-yl)oxy)butyl)piperazin-1-ium-1-yl)methyl (2-(2-methoxyethoxy)ethyl)phosphate]",–,-4,–
0.00,0.00,CCCCOCCOCCOP(=O)([O-])OC[N+]1(CCCCOc2ccc3ccc(=O)[nH]c3c2)CCN(c2cccc3sccc23)CC1 [EX 99],–,-6,–
